In one assay the target is T1, mouse GLP-1 receptor (Mus musculus, UniProt O35659).
T1 sequence (O35659 22-463): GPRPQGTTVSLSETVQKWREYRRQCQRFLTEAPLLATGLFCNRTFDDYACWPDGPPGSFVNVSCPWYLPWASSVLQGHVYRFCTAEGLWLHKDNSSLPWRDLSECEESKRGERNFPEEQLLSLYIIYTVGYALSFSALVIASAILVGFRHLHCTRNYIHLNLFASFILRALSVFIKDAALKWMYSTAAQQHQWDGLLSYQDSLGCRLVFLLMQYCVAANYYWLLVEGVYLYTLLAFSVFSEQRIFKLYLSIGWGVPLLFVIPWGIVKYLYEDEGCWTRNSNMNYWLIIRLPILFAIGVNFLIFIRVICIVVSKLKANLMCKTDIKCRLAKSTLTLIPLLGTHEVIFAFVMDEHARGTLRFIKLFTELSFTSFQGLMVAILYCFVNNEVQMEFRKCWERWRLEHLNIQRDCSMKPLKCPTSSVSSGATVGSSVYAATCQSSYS

For another assay, the target named is human GLP-1 receptor (Homo sapiens, UniProt P43220). Kind of assay: cell-based. The settings on record: hGLP-1R.
Sequence of human GLP-1 receptor (P43220 24-463): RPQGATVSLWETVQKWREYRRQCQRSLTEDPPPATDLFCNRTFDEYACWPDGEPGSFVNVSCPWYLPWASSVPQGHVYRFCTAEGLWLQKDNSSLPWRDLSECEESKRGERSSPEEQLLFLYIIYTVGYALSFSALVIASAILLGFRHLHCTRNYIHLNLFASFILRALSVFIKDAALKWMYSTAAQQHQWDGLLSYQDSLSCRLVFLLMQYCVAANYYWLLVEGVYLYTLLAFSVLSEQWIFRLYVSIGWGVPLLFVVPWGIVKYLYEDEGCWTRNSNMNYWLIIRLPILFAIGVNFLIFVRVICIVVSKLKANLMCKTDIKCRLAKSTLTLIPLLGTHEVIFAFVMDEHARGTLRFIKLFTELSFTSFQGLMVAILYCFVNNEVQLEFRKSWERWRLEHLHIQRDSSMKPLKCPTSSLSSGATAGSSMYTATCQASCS
The next assay addresses T2, mouse GIP receptor (Mus musculus, UniProt Q0P543).
T2 sequence (Q0P543 19-460): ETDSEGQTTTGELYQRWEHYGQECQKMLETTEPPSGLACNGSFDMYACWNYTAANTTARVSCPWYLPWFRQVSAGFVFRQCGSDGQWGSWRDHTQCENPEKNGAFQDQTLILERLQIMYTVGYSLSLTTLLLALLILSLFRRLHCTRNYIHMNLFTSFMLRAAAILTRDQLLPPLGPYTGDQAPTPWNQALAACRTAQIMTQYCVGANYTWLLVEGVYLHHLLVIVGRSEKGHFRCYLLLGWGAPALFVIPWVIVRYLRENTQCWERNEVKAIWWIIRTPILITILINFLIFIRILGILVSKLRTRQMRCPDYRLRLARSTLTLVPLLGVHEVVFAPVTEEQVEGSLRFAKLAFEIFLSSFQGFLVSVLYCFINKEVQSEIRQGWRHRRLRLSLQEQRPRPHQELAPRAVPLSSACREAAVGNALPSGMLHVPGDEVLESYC
Kind of assay: cell-based.

SMILES strings stand for the structures. Starred links: 1 amine or outer side, 2 acyl side, 3 side chain; linkers in the order of their positions; H or OH if unused. Non-standard residues stand in square brackets, D forms with d. Residues, ends and D or L forms follow the SMILES beside them. Groups on a side chain read outwards from the residue. *: point of attachment. C20 diacid = O=C(O)CCCCCCCCCCCCCCCCCCC(=O)*; γGlu = O=C(O)[C@H](CCC(=O)[*:2])N[*:1]; εLys = N[C@@H](CCCCN[*:1])C(=O)[*:2]; Trx = NC[C@H]1CC[C@H](C(=O)O)CC1; AEEA = NCCOCCOCC(=O)O; Aib = CC(C)(N)C(=O)O

Description for mouse GIP receptor: The in vitro functional potency is the measure of target receptor activation in a whole cell assay.
In vitro functional potency was determined by measuring the response of the target receptor in a reporter gene assay in individual cell lines. […] When the respective receptor is activated, it results in the production of cAMP, which in turn results in expression of the luciferase protein. When assay incubation is completed, luciferase substrate (luciferin) is added resulting in the enzymatic conversion of luciferin to oxyluciferin and producing bioluminescence. The luminescence is measured as the readout for the assay.
The cells lines used in these assays were BHK cells with BHKTS13 as a parent cell line. The cell lines were derived from a clone containing the CRE luciferase element and were established by further transfection with the respective receptor to obtain the relevant cell line.
The cells were cultured at 37° C. with 5% CO2 in Cell Culture Medium. They were aliquoted and stored in liquid nitrogen. The cells were kept in continuous culture and were seeded out the day before each assay.
GLP-1R and GcgR Cell Culture Medium consisted of DMEM medium with 10% FBS, 500 μg/mL G418, and 300 μg/mL hygromycin. GIPR Cell Culture Medium consisted of DMEM medium with 10% FBS, 400 μg/mL G418, and 300 μg/mL hygromycin. Assay Buffer consisted of DMEM w/o phenol red, 10 mM Hepes, 1×Glutamax, 1% ovalbumin, and 0.1% Pluronic F-68 with the addition of HSA at twice the final assay concentration.
• 1) Cells were plated at 5000 cells/well and incubated overnight in the assay plate. • 2) Cells were washed once in DPBS. • 3) Stocks of the test compounds and reference compounds in concentrations ranging from 100-300 μM were diluted 1:150 in Assay Buffer. Compounds were then diluted 1:10 in column 1 of a 96 deep well dilution plate and then carried across the row creating a 3.5 fold, 12 point dilution curve. • 4) Assay Buffer (50 μl aliquot) with or without HSA was added to each well in the assay plate. • 5) A 50 μl aliquot of compound or blank was transferred from the dilution plate to the assay plate containing the Assay Buffer with or without HSA. • 6) The assay plate was incubated for 3 h in a 5% CO2 incubator at 37° C. 7) The cells were washed once with DPBS. • 8) A 100 μl aliquot of DPBS was added to each well of the assay plate. • 9) A 100 μl aliquot of steadylite plus reagent (light sensitive) was added to each well of the assay plate. • 10) Each assay plate was covered with aluminum foil to protect it from light and shaken at 250 RPM for 30 min at room temperature. • 11) Each assay plate was read in a microtiter plate reader.
The data from the microtiter plate reader was first regressed in an Excel in order to calculate the x-axis, log scale concentrations based on the individual test compound's stock concentration and the dilutions of the assay. […] The software performs a non-linear regression (log(agonist) vs response). A minimum of two replicates was measured for each sample. The reported values are averages of the replicates.

One may read the EC50 as the midpoint of the concentration-response curve. A lower EC50 goes with greater potency. Regarding `CC[C@H](C)[C@H](NC(=O)[C@H](CO)NC(=O)[C@H](Cc1ccc(O)cc1)NC(=O)[C@H](CC(=O)O)NC(=O)[C@H](CO)NC(=O)[C@@H](NC(=O)[C@H](Cc1ccccc1)NC(=O)[C@@H](NC(=O)CNC(=O)[C@H](CCC(=O)O)NC(=O)C(C)(C)NC(=O)[C@@H](N)Cc1ccc(O)cc1)[C@@H](C)O)[C@@H](C)O)C(=O)N[C@@H](Cc1ccc(O)cc1)C(=O)N[C@@H](CC(C)C)C(=O)N[C@@H](CCC(=O)O)C(=O)N[C@@H](CCC(=O)O)C(=O)N[C@@H](CCC(N)=O)C(=O)N[C@@H](C)C(=O)N[C@@H](C)C(=O)NC(C)(C)C(=O)N[C@@H](CCCCNC(=O)COCCOCCNC(=O)COCCOCCNC(=O)CC[C@H](NC(=O)[C@H]1CC[C@H](CNC(=O)CCCCCCCCCCCCCCCCCCC(=O)O)CC1)C(=O)O)C(=O)N[C@@H](Cc1ccccc1)C(=O)N[C@H](C(=O)N[C@@H](CC(N)=O)C(=O)N[C@@H](Cc1c[nH]c2ccccc12)C(=O)N[C@@H](CC(C)C)C(=O)N[C@@H](CC(C)C)C(=O)N[C@@H](C)C(=O)NCC(=O)NCC(=O)N1CCC[C@H]1C(=O)N[C@@H](CO)C(=O)N[C@@H](CO)C(=O)NCC(=O)N[C@@H](C)C(=O)N1CCC[C@H]1C(=O)N1CCC[C@H]1C(=O)N1CCC[C@H]1C(=O)N[C@@H](CO)C(N)=O)C(C)C` [Compound 25] (H-Y[Aib]EGTFTSDYSIYLEEQAA[Aib]K([AEEA-AEEA-γGlu-Trx-C20 diacid])FVNWLLAGGPSSGAPPPS-NH2; N-terminus assumed), the EC50 is 0.0029 nM on mouse GLP-1 receptor; 0.0048 nM on human GLP-1 receptor (CRE Luc 0% HSA EC50, 0% HSA); 0.602 nM on human GLP-1 receptor (CRE Luc 1% HSA EC50, 1% HSA); 0.34 nM at mouse GIP receptor.

Turning to `CC[C@H](C)[C@H](NC(=O)[C@H](CO)NC(=O)[C@H](Cc1ccc(O)cc1)NC(=O)[C@H](CC(=O)O)NC(=O)[C@H](CO)NC(=O)[C@@H](NC(=O)[C@H](Cc1ccccc1)NC(=O)[C@@H](NC(=O)CNC(=O)[C@H](CCC(=O)O)NC(=O)C(C)(C)NC(=O)[C@@H](N)Cc1ccc(O)cc1)[C@@H](C)O)[C@@H](C)O)C(=O)N[C@@H](Cc1ccc(O)cc1)C(=O)N[C@@H](CC(C)C)C(=O)N[C@@H](CCC(=O)O)C(=O)N[C@@H](CCC(=O)O)C(=O)N[C@@H](CCC(N)=O)C(=O)N[C@@H](C)C(=O)N[C@@H](C)C(=O)NC(C)(C)C(=O)N[C@@H](CCCCNC(=O)COCCOCCNC(=O)COCCOCCNC(=O)CC[C@H](NC(=O)CCCCCCCCCCCCCCCCCCC(=O)O)C(=O)O)C(=O)N[C@@H](Cc1ccccc1)C(=O)N[C@H](C(=O)N[C@@H](CC(N)=O)C(=O)N[C@@H](Cc1c[nH]c2ccccc12)C(=O)N[C@@H](CC(C)C)C(=O)N[C@@H](CC(C)C)C(=O)N[C@@H](C)C(=O)NCC(=O)NCC(=O)N1CCC[C@H]1C(=O)N[C@@H](CO)C(=O)N[C@@H](CO)C(=O)NCC(=O)N[C@@H](C)C(=O)N1CCC[C@H]1C(=O)N1CCC[C@H]1C(=O)N1CCC[C@H]1C(=O)N[C@@H](CO)C(N)=O)C(C)C` [Compound 26] (H-Y[Aib]EGTFTSDYSIYLEEQAA[Aib]K([AEEA-AEEA-γGlu-C20 diacid])FVNWLLAGGPSSGAPPPS-NH2; N-terminus assumed), the EC50 is 0.0028 nM on mouse GLP-1 receptor; 0.0047 nM on human GLP-1 receptor (CRE Luc 0% HSA EC50, 0% HSA); 0.37 nM on human GLP-1 receptor (CRE Luc 1% HSA EC50, 1% HSA); 0.776 nM on mouse GIP receptor.

For the compound `CC[C@H](C)[C@H](NC(=O)[C@H](CO)NC(=O)[C@H](Cc1ccc(O)cc1)NC(=O)[C@H](CC(=O)O)NC(=O)[C@H](CO)NC(=O)[C@@H](NC(=O)[C@H](Cc1ccccc1)NC(=O)[C@@H](NC(=O)CNC(=O)[C@H](CCC(=O)O)NC(=O)C(C)(C)NC(=O)[C@@H](N)Cc1ccc(O)cc1)[C@@H](C)O)[C@@H](C)O)C(=O)N[C@@H](Cc1ccc(O)cc1)C(=O)N[C@@H](CC(C)C)C(=O)N[C@@H](CCC(=O)O)C(=O)N[C@@H](CCCCN)C(=O)N[C@@H](CCCCNC(=O)COCCOCCNC(=O)COCCOCCNC(=O)CC[C@H](NC(=O)CCCCCCCCCCCCCCCCCCC(=O)O)C(=O)O)C(=O)N[C@@H](C)C(=O)N[C@@H](C)C(=O)NC(C)(C)C(=O)N[C@@H](CCC(=O)O)C(=O)N[C@@H](Cc1ccccc1)C(=O)N[C@H](C(=O)N[C@@H](CC(N)=O)C(=O)N[C@@H](Cc1c[nH]c2ccccc12)C(=O)N[C@@H](CC(C)C)C(=O)N[C@@H](CC(C)C)C(=O)N[C@@H](C)C(=O)NCC(=O)NCC(=O)N1CCC[C@H]1C(=O)N[C@@H](CO)C(=O)N[C@@H](CO)C(=O)NCC(=O)N[C@@H](C)C(=O)N1CCC[C@H]1C(=O)N1CCC[C@H]1C(=O)N1CCC[C@H]1C(=O)N[C@@H](CO)C(N)=O)C(C)C` [Compound 30] (H-Y[Aib]EGTFTSDYSIYLEKK([AEEA-AEEA-γGlu-C20 diacid])AA[Aib]EFVNWLLAGGPSSGAPPPS-NH2; N-terminus assumed), the EC50 at mouse GLP-1 receptor turned out to be 0.0019 nM; at human GLP-1 receptor (CRE Luc 0% HSA EC50, 0% HSA) it was 0.0084 nM; on human GLP-1 receptor (CRE Luc 1% HSA EC50, 1% HSA), 0.353 nM; at mouse GIP receptor it was 0.201 nM.

Take `CC[C@H](C)[C@H](NC(=O)[C@H](CO)NC(=O)[C@H](Cc1ccc(O)cc1)NC(=O)[C@H](CC(=O)O)NC(=O)[C@H](CO)NC(=O)[C@@H](NC(=O)[C@H](Cc1ccccc1)NC(=O)[C@@H](NC(=O)CNC(=O)[C@H](CCC(=O)O)NC(=O)C(C)(C)NC(=O)[C@@H](N)Cc1ccc(O)cc1)[C@@H](C)O)[C@@H](C)O)C(=O)N[C@@H](Cc1ccc(O)cc1)C(=O)N[C@@H](CC(C)C)C(=O)N[C@@H](CCC(=O)O)C(=O)N[C@@H](CCCCN)C(=O)N[C@@H](CCC(N)=O)C(=O)N[C@@H](C)C(=O)N[C@@H](C)C(=O)NC(C)(C)C(=O)N[C@@H](CCCCNC(=O)COCCOCCNC(=O)COCCOCCNC(=O)CC[C@H](NC(=O)[C@H]1CC[C@H](CNC(=O)CCCCCCCCCCCCCCCCCCC(=O)O)CC1)C(=O)O)C(=O)N[C@@H](Cc1ccccc1)C(=O)N[C@H](C(=O)N[C@@H](CC(N)=O)C(=O)N[C@@H](Cc1c[nH]c2ccccc12)C(=O)N[C@@H](CC(C)C)C(=O)N[C@@H](CC(C)C)C(=O)N[C@@H](C)C(=O)NCC(=O)NCC(=O)N1CCC[C@H]1C(=O)N[C@@H](CO)C(=O)N[C@@H](CO)C(=O)NCC(=O)N[C@@H](C)C(N)=O)C(C)C` [Compound 32] (H-Y[Aib]EGTFTSDYSIYLEKQAA[Aib]K([AEEA-AEEA-γGlu-Trx-C20 diacid])FVNWLLAGGPSSGA-NH2; N-terminus assumed): the EC50 turned out to be 0.0025 nM on mouse GLP-1 receptor; 0.0117 nM on human GLP-1 receptor (CRE Luc 0% HSA EC50, 0% HSA); 0.221 nM at human GLP-1 receptor (CRE Luc 1% HSA EC50, 1% HSA); 0.0802 nM at mouse GIP receptor.

`CC[C@H](C)[C@H](NC(=O)[C@H](CO)NC(=O)[C@H](Cc1ccc(O)cc1)NC(=O)[C@H](CC(=O)O)NC(=O)[C@H](CO)NC(=O)[C@@H](NC(=O)[C@H](Cc1ccccc1)NC(=O)[C@@H](NC(=O)CNC(=O)[C@H](CCC(=O)O)NC(=O)C(C)(C)NC(=O)[C@@H](N)Cc1ccc(O)cc1)[C@@H](C)O)[C@@H](C)O)C(=O)N[C@@H](Cc1ccc(O)cc1)C(=O)N[C@@H](CC(C)C)C(=O)N[C@@H](CCC(=O)O)C(=O)N[C@@H](CCCCNC(=O)[C@@H](N)CCCCNC(=O)[C@@H](N)CCCCNC(=O)CC[C@H](NC(=O)[C@H]1CC[C@H](CNC(=O)CCCCCCCCCCCCCCCCCCC(=O)O)CC1)C(=O)O)C(=O)N[C@@H](CCC(N)=O)C(=O)N[C@@H](C)C(=O)N[C@@H](C)C(=O)NC(C)(C)C(=O)N[C@@H](CCC(=O)O)C(=O)N[C@@H](Cc1ccccc1)C(=O)N[C@H](C(=O)N[C@@H](CCC(N)=O)C(=O)N[C@@H](Cc1c[nH]c2ccccc12)C(=O)N[C@@H](CC(C)C)C(=O)N[C@@H](CC(C)C)C(=O)N[C@@H](CCC(=O)O)C(=O)NCC(=O)NCC(=O)N1CCC[C@H]1C(=O)N[C@@H](CO)C(=O)N[C@@H](CO)C(=O)NCC(=O)N[C@@H](C)C(N)=O)C(C)C` [Compound 33] (H-Y[Aib]EGTFTSDYSIYLEK([εLys-εLys-γGlu-Trx-C20 diacid])QAA[Aib]EFVQWLLEGGPSSGA-NH2; N-terminus assumed): the EC50 at mouse GLP-1 receptor was found to be 0.004 nM; at human GLP-1 receptor (CRE Luc 0% HSA EC50, 0% HSA) it was 0.0059 nM; on human GLP-1 receptor (CRE Luc 1% HSA EC50, 1% HSA) it was 0.741 nM; at mouse GIP receptor, 0.0311 nM.
